Assay: Antiinflammatory activity in human neutrophils assessed as inhibition of fMLP-indcued superoxide production after 5 mins
Format: functional, cell-based
Conditions: Neutrophil

SMILES | IC50 [µM]
COc1c(O)cc2c(oc3c(OC)cccc32)c1OC | 27.4
COc1cc(O)cc(-c2ccccc2OC)c1 | 8.36
COc1cc(O)cc(-c2ccccc2O)c1 | 2.04
COc1c(O)cc2c(oc3c(OC)ccc(OC)c32)c1OC | 7.61
CC(C)Cc1ccc(C(C)C(=O)O)cc1 (stereo not drawn) [IBUPROFEN] | 27.5

Further lines, results first:

IC50 [µM] | SMILES
27.4 | COc1c(O)cc2c(oc3cccc(OC)c32)c1OC
> 100 | COc1c2c(c3c(oc4c(OC)cccc43)c1OC)OCO2
34.1 | COc1cc(O)cc(-c2ccccc2)c1
